{"source": "patent US5527811A", "about": "“Isoquinolinyl compounds which are useful in treating cerebral vascular disorders” (Takeda Chemical Industries, Ltd., priority 1993, dated 1996)", "key": {"[1]": {"system": "transient cerebral ischemia in mongolian gerbils", "experiment": "Protective effect of cerebralischemia: survival ratio after bilateral common carotid occlusion and reperfusion in gerbils", "assay_type": "in vivo, mongolian gerbil", "conditions": "Meriones unguiculatus, ip; for responders at 5 mg/kg: read-out: Survival ratio", "method": "Test Example 1 Protective effect of cerebralischemia\nMale mongolian gerbils (Seiwa/8-10 wks) (n=8-10) were used. Bilateral common carotid arteries were occluded after the incision of the center of the neck under ether anesthesia. Global cerebral ischemia was induced by the occlusion of bilateral common carotid arteries (15 minutes), and after that these arteries were reperfused. Test sample was administered intraperiatonelly 30 minutes before occlusion and 90 minutes after reperfusion. In the control group, vehicle (distilled water, saline or 5% gum arabic) was administered in the same fashion. Survival ratio was estimated at 8 hr after reperfusion (Table 2)."}, "[2]": {"system": "brain edema in male wistar rats", "experiment": "Anti-brain edema effect (middle cerebral arterial occlusion and reperfusion model)", "assay_type": "in vivo, rat (wistar)", "conditions": "10 mg/kg(ip) × 7, rat, 3rd day after reperfusion, * p < 0.05", "from_the_text": "Test Example 2 Anti-brain edema effect (middle cerebral arterial occlusion and reperfusion model)\nMale wistar rats (Jcl:9wks) were anesthetized with inhalation of halothane (2-bromo-2-chloro-1,1,1-trifluoroethane). After the incision of neck, bilateral common carotid arteries were […] an embolized needle (diameter 0.3 mm, length 26 mm nylon thread) was inserted into the left internal carotid artery through external carotid artery and, simultaneously, the bilateral common carotid arteries were occluded by the Sugita's aneurysm clips. The embolized needle and the clips were removed out 30 minutes after occlusion. Test sample was administered immediately and 5 hr after reperfusion on the operated day, twice a day on the 1st and 2nd day, and 1 hr before removing the brain on the 3rd day (total 7 times), intraperiatonelly. In the control group, vehicle (distilled water, saline or 5% gum arabic) was administered in the same fasion. Brain edema on the 3rd day after reperfusion was estimated from the content of water, potassium and sodium in cerebral cortex and striatum. Water content was calculated from the ratio of dried brain weight and wet brain weight [(1-dried weight/wet weight)×100%]. The contents of pottasium and sodium were measured using the solution extracted from dried brain tissue with 14% nitric acid by the method of the framephotometer (Table 3)."}, "[3]": {"conditions": "5 mg/kg, 30 min before occlusion and 90 min after reperfusion, estimated 8 hr after reperfusion, control 0"}, "[4]": {"conditions": "30 min before occlusion and 90 min after reperfusion, estimated 8 hr after reperfusion, control 0"}}, "note": "Counter-ions that a name gives are not always drawn. Like-named read-outs stand apart in the source and are kept apart here."}
{"compound": "CN(C)c1cccc(NC(=O)NCc2c(-c3ccccc3)c3cc(Cl)ccc3c(=O)n2C)c1", "note": "[14 (HCl), N-[(6-Chloro-1,2-dihydro-2-methyl-1-oxo-4-phenylisoquinolin-3-yl)methyl]-N'-(3-N,N-dimethylaminophenyl)urea hydrochloride]", "values": [{"measurement": "responders at 5 mg/kg", "setting": "[1]; [3]", "result": 63, "unit": "%"}]}
{"compound": "CN(C)Cc1cccc(NC(=O)NCc2c(-c3ccccc3)c3cc(Cl)ccc3c(=O)n2C)c1", "note": "[15 (HCl), N-[(6-Chloro-1,2-dihydro-2-methyl-1-oxo-4-phenylisoquinolin-3-yl)methyl]-N'-(3-N,N-dimethylaminomethylphenyl)urea hydrochloride]", "values": [{"measurement": "H2O (water content of brain)", "setting": "[2]; control 81.27 (Example 1), 80.94 (Example 15(HCl))", "result": "80.24 ± 0.23", "unit": "%"}, {"measurement": "Na (sodium content of brain)", "setting": "[2]; control 405 (Example 1), 371 (Example 15(HCl))", "result": "325 ± 17", "unit": "mEq/kg"}, {"measurement": "K (potassium content of brain)", "setting": "[2]; control 430 (Example 1), 440 (Example 15(HCl))", "result": "466 ± 9", "unit": "mEq/kg"}, {"measurement": "responders at 0.3 mg/kg", "setting": "[1]; [4]", "result": 80, "unit": "%"}, {"measurement": "responders at 5 mg/kg", "setting": "[1]; [3]", "result": 88, "unit": "%"}]}
{"compound": "Cn1c(CNC(=O)Nc2cccc(C(=O)O)c2)c(-c2ccccc2)c2cc(Cl)ccc2c1=O", "note": "[17 (Na), N-(3-Carboxyphenyl)-N'-[(6-chloro-1,2-dihydro-2-methyl-1-oxo-4-phenylisoquinolin-3-yl)methyl]urea sodium salt]", "values": [{"measurement": "responders at 5 mg/kg", "setting": "[1]; 8 h", "result": 67, "unit": "%"}]}
{"compound": "CC(C)Oc1cccc(N(CC(=O)O)C(=O)NCc2c(-c3ccccc3)c3cc(Cl)ccc3c(=O)n2C)c1", "note": "[22 (Ma), N-Carboxymethyl-N'-[(6-chloro-1,2-dihydro-2-methyl-1-oxo-4-phenylisoquinolin-3-yl)methyl]-N-(3isopropoxyphenyl)urea sodium salt]", "values": [{"measurement": "responders at 5 mg/kg", "setting": "[1]; 8 h", "result": 63, "unit": "%"}]}
{"compound": "Cn1c(CNC(=O)Cc2cccc(C(=O)O)c2)c(-c2ccccc2)c2cc(Cl)ccc2c1=O", "note": "[28 (Na), N-(6-Chloro-1,2-dihydro-2-methyl-1-oxo-4-phenylisoquinolin-3-yl)methyl-α-(3-carboxyphenyl)acetamide sodium salt]", "values": [{"measurement": "responders at 5 mg/kg", "setting": "[1]; 8 h", "result": 75, "unit": "%"}]}
{"compound": "CCN(CC)Cc1cccc(NC(=O)NCc2c(-c3ccccc3)c3cc(Cl)ccc3c(=O)n2C)c1", "note": "[39 (HCl), N-[(6-Chloro-1,2-dihydro-2-methyl-1-oxo-4-phenylisoquinolin-3-yl)methyl]-N'-[3-(diethylaminomethyl)phenyl]urea]", "values": [{"measurement": "responders at 5 mg/kg", "setting": "[1]; [3]", "result": 63, "unit": "%"}]}
{"compound": "Cn1c(CNC(=O)Nc2cccc(CN3CCCC3)c2)c(-c2ccccc2)c2cc(Cl)ccc2c1=O", "note": "[40 (HCl), N-[(6-Chloro-1,2-dihydro-2-methyl-1-oxo-4-phenylisoquinolin-3-yl)methyl]-N'-[3-(1-pyrrolidinomethyl)phenyl]urea]", "values": [{"measurement": "responders at 5 mg/kg", "setting": "[1]; [3]", "result": 75, "unit": "%"}]}
{"compound": "CCN(CC)CCc1cccc(NC(=O)NCc2c(-c3ccccc3)c3cc(Cl)ccc3c(=O)n2C)c1", "note": "[41 (HCl), N-[(6-Chloro-1,2-dihydro-2-methyl-1-oxo-4-phenylisoquinolin-3-yl)methyl]-N'-{3-[2-(diethylamino)ethyl]phenyl}urea]", "values": [{"measurement": "responders at 0.3 mg/kg", "setting": "[1]; [4]", "result": 75, "unit": "%"}, {"measurement": "responders at 5 mg/kg", "setting": "[1]; [3]", "result": 88, "unit": "%"}]}
{"compound": "CN(C)Cc1ccc(NC(=O)NCc2c(-c3ccccc3)c3cc(Cl)ccc3c(=O)n2C)cc1", "note": "[43 (HCl), N-[(6-Chloro-1,2-dihydro-2-methyl-1-oxo-4-phenylisoquinolin-3-yl)methyl]-N'-[4-(dimethylaminomethyl)phenyl]urea]", "values": [{"measurement": "responders at 5 mg/kg", "setting": "[1]; [3]", "result": 63, "unit": "%"}]}
{"compound": "CN(C)CCCc1cccc(NC(=O)NCc2c(-c3ccccc3)c3cc(Cl)ccc3c(=O)n2C)c1", "note": "[44 (HCl), N-[(6-Chloro-1,2-dihydro-2-methyl-1-oxo-4-phenylisoquinolin-3-yl)methyl]-N'-{3-[3-(dimethylamino)propyl]phenyl}urea]", "values": [{"measurement": "responders at 5 mg/kg", "setting": "[1]; [3]", "result": 63, "unit": "%"}]}
{"compound": "CN(C)CCOc1cccc(NC(=O)NCc2c(-c3ccccc3)c3cc(Cl)ccc3c(=O)n2C)c1", "note": "[45 (HCl), N-[(6-Chloro-1,2-dihydro-2-methyl-1-oxo-4-phenylisoquinolin-3-yl)methyl]-N'-{3-[2-(dimethylamino)ethoxy]phenyl}urea]", "values": [{"measurement": "responders at 5 mg/kg", "setting": "[1]; [3]", "result": 82, "unit": "%"}]}
{"compound": "Cn1c(CNC(=O)NCCCn2ccnc2)c(-c2ccccc2)c2cc(Cl)ccc2c1=O", "note": "[47 (HCl), N-[(6-Chloro-1,2-dihydro-2-methyl-1-oxo-4-phenylisoquinolin-3-yl)methyl]-N'-[3-(1-imidazolyl)propyl]urea]", "values": [{"measurement": "responders at 5 mg/kg", "setting": "[1]; [3]", "result": 75, "unit": "%"}]}
{"compound": "CNCc1cccc(NC(=O)NCc2c(-c3ccccc3)c3cc(Cl)ccc3c(=O)n2C)c1", "note": "[48 (HCl), N-[(6-Chloro-1,2-dihydro-2-methyl-1-oxo-4-phenylisoquinolin-3-yl)methyl]-N'-[3-(methylamino)methylphenyl]urea hydrochloride]", "values": [{"measurement": "responders at 5 mg/kg", "setting": "[1]; [3]", "result": 88, "unit": "%"}]}
{"compound": "CCNCc1cccc(NC(=O)NCc2c(-c3ccccc3)c3cc(Cl)ccc3c(=O)n2C)c1", "note": "[49 (HCl), N-[(6-Chloro-1,2-dihydro-2-methyl-1-oxo-4-phenylisoquinolin-3-yl)methyl]-N'-[3-(ethylaminomethyl)phenyl]urea hydrochloride]", "values": [{"measurement": "responders at 5 mg/kg", "setting": "[1]; [3]", "result": 88, "unit": "%"}]}
{"compound": "Cn1c(CNC(=O)Nc2ccc3c(c2)CCC3N)c(-c2ccccc2)c2cc(Cl)ccc2c1=O", "note": "(stereo not drawn) [50 (HCl), N-(1-Aminoindan-5-yl)-N'-[(6-chloro-1,2-dihydro-2-methyl-1-oxo-4-phenylisoquinolin-3-yl)methyl]urea hydrochloride]", "values": [{"measurement": "responders at 5 mg/kg", "setting": "[1]; [3]", "result": 75, "unit": "%"}]}
{"compound": "Cn1c(CNC(=O)Nc2cccc(CN)c2)c(-c2ccccc2)c2cc(Cl)ccc2c1=O", "note": "[51 (HCl), N-[3-(Aminomethyl)phenyl]-N'-[(6-chloro-1,2-dihydro-2-methyl-1-oxo-4-phenylisoquinolin-3-yl)methyl]urea hydrochloride]", "values": [{"measurement": "responders at 5 mg/kg", "setting": "[1]; [3]", "result": 100, "unit": "%"}]}
{"compound": "CN(C)Cc1cccc(NC(=O)NCc2c(-c3ccc(F)cc3)c3ccccc3c(=O)n2C)c1", "note": "[53 (HCl), N-{[4-(4-Fluorophenyl)-1,2-dihydro-2-methyl-1-oxoisoquinolin-3-yl]methyl}-N'-[3-(dimethylaminomethyl)phenyl]urea hydrochloride]", "values": [{"measurement": "responders at 5 mg/kg", "setting": "[1]; [3]", "result": 75, "unit": "%"}]}
{"compound": "CC(C)Oc1cccc(NC(=O)NCc2c(-c3ccccc3)c3ccccc3c(=O)n2C)c1", "note": "[Example 16, N-[(1,2-Dihydro-2-methyl-1-oxo-4-phenylisoquinolin-3yl)methyl]-N'-(3-isopropoxyphenyl)urea]", "values": [{"measurement": "responders at 5 mg/kg", "setting": "[1]; [3]", "result": 88, "unit": "%"}]}
{"compound": "CC(C)Oc1cccc(N(C)C(=O)N(C)Cc2c(-c3ccccc3)c3cc(Cl)ccc3c(=O)n2C)c1", "note": "[Example 24, N-[(6-Chloro-1,2-dihydro-2-methyl-1-oxo-4-phenylisoquinolin-3-yl)methyl]-N'-(3-isopropoxyphenyl)-N,N'-dimethylurea]", "values": [{"measurement": "responders at 5 mg/kg", "setting": "[1]; [3]", "result": 75, "unit": "%"}]}
{"compound": "CC(C)Oc1cccc(CC(=O)NCc2c(-c3ccccc3)c3cc(Cl)ccc3c(=O)n2C)c1", "note": "[Example 27, N-(6-Chloro-1,2-dihydro-2-methyl-1-oxo-4-phenylisoquinolin-3-yl)methyl-α-(3-isopropoxyphenyl)acetamide]", "values": [{"measurement": "responders at 5 mg/kg", "setting": "[1]; [3]", "result": 88, "unit": "%"}]}
{"compound": "CC(C)Oc1cccc(OC(=O)NCc2c(-c3ccccc3)c3cc(Cl)ccc3c(=O)n2C)c1", "note": "[Example 29, 3-Isopropoxyphenyl N-[(6-chloro-1,2-dihydro-2-methyl-1-oxo-4-phenylisoquinolin-3-yl)methyl]carbamate]", "values": [{"measurement": "responders at 5 mg/kg", "setting": "[1]; 8 h", "result": 75, "unit": "%"}]}
{"compound": "CC(C)Oc1cccc(CC(=O)OCc2c(-c3ccccc3)c3cc(Cl)ccc3c(=O)n2C)c1", "note": "[Example 32, (6-Chloro-1,2-dihydro-2-methyl-1-oxo-4-phenylisoquinolin-3-yl)methyl α-(3-isopropoxyphenyl)acetate]", "values": [{"measurement": "responders at 5 mg/kg", "setting": "[1]; [3]", "result": 63, "unit": "%"}]}
